Experimental data: PMC3648997 (Bioorganic & medicinal chemistry letters, 2013)
One block for each compound: values may come before it.

How the values were obtained:
[1] = Stability over 24 h; details: over a period of 24 h
[2] = Glutathione reactivity; details: 50 μM glutathione, over 48 h
[3] = molecular target: Keap1 Kelch domain (Homo sapiens, UniProt Q14145); assay: SPR solution competition assay; assay type: binding
Sequence of Keap1 Kelch domain (Q14145 321-609 limits assumed): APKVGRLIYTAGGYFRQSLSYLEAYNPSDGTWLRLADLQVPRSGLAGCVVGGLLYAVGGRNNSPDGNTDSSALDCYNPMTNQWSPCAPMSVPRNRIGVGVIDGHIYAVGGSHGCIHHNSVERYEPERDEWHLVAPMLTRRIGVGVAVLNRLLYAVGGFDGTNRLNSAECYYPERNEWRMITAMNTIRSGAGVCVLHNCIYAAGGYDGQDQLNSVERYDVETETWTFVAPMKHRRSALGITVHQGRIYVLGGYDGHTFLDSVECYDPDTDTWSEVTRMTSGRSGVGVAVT

stability [1]: highly stable
Compound: O=C(O)[C@H]1CCCC[C@H]1C(=O)N1CCc2ccccc2[C@H]1CN1C(=O)c2ccccc2C1=O [(SRS)-5]
thiol addition or decomposition [2]: No thiol addition or decomposition could be detected

fold less active than (SRS)-5 ([3]; relative to (SRS)-5): about 20 fold
Compound: NC(=O)C1CCCCC1C(=O)N1CCc2ccccc2C1CN1C(=O)c2ccccc2C1=O (centres unmarked) [corresponding amide]

Keap1 binding activity (in words) [3]: completely inactive
Compound: COC(=O)C1CCCCC1C(=O)N1CCc2ccccc2C1CN1C(=O)c2ccccc2C1=O (centres unmarked) [corresponding methyl ester]

Compound: O=C(O)C1CCCCC1C(=O)N1CCc2ccccc2C1CN1Cc2ccccc2C1=O (centres unmarked) [lactam]
Keap1 binding activity (in words) [3]: only slight decrease in Keap1 binding
